Assay [1] concerns clinically isolated P. aeruginosa mucoid strains. The assay is described as follows: microbe, parasite or virus in culture. To be noted: Pseudomonas aeruginosa. The procedure: (§1) The clinically isolated P. aeruginosa mucoid strains that were used in these experiments are described in Table 1.
(§2) Methods: Prep Work—3 Days Culture the Clinical Mucoid P. aeruginosa Strains Isolated from CF Patients • 1. Freshly subculture the glycerol stock of the strain (stored at −80° C.) by streaking onto a blood agar (3˜4 streaks). Incubate the blood agar plate at 37° C. for 24 hr. The consistency of the mucoid phenotype can be improved by further subculturing (e.g., a total of 3 times, one/day). • 2. The following day, pick a few colonies and streak them onto a fresh blood agar. Note: Every time the cells are cultured using the stock strains (stored at −80° C.), they should be subcultured 3 times in total, and the last blood agar plate is then good for about one week. In the following week, the strains can be re-subcultured from the last agar plate to grow fresh colonies—this needs only to be done once (no need to do it 3 times). If the mucoid phenotype is lost, the glycerol stocks (−80° C.) should be used, and subcultured 3 times. Biofilm Assay—Day 1 Grow Overnight Cell Culture • 1. Inoculate freshly cultured cells (see prep work) in 10 mL TSB, and grow overnight at 37° C. on a shaker. […] Biofilm Assay—Day 2 Biofilm Set-up • 1. Make 0.5 McFarland for each strain/organism (add ˜100 μL O/N culture to 2 mL 50% TSB): • 0.5 McFarland=10^8 CFU/mL. • To calibrate a colourimeter/turbidity meter: • Positive blank: place a solid marker in the holder; turn the left knob to adjust to zero. • Negative blank: use a glass tube containing 50% TSB (1:1 TSB/H2O); adjust the right knob to 100% T. • Non-mucoid strains should be read in the lower ‘red zone’ on a colorimeter/turbidity meter. • Mucoid strains should be a bit heavier, and read in the mid ‘red zone’. • 2. Make bacterial inoculums: to a 50 mL falcon tube, add 300 μL of 0.5 McFarland to 19.7 mL of TSB. • 3. Mix the tube gently by inverting. • 4. In the biosafety fume hood or beside the flame: • Label a 96-well plate: strain and time. • Pour inoculum into a reservoir. • Using the multi-channel pipet, add 150 μL of inoculum into each well, leave the last column empty (last column=negative control, no cells). • Carefully place a peg lid onto the plate, match the cut corners. • 5. Place the plate on a shaker in 37° C. incubator (requires ≥3 h). Checking Biofilm Plate Growth • 1. Check plates periodically using a plate-reader to determine OD readings: • At OD650, aim for ˜0.045-0.050. • Depending on the strain, require 3-28 h to grow. […] Loading Antibiotic Plates • 1. Place the peg lid (containing biofilm growth) of the susceptibility plate into a pre-made 96-well antibiotic plate (see protocol from Day 1; see FIG. 1). Incubate at 37° C. for 24 h. * This will be referred to the planktonic growth plate, which measures the planktonic susceptibility in the biofilm assay, or MICs. * • 2. Place the lid of 96-well antibiotic plate onto the previous susceptibility plate, and keep in the fridge for reference until the experiment is completed. • 3. Proceed to perform inoculum check (see below) Inoculum Check • 1. Purity check: • Take a loopful of bacteria culture from any well of the susceptibility plate. • Spread onto half of a blood agar plate. • Place in the incubator at 37° C. for 24 h. • 2. Inoculum check: • In sterile Eppendorf tubes or liver vials (need 4 per strain), prepare the following dilutions: • a. 10^2: […] from any well of the susceptibility plate. • b. 10^3: 900 μL of H2O and 100 μL of mixture from Step (a). • c. 10^4: 900 μL of H2O and 100 μL of mixture from Step (b). • d. 10^5: 900 μL of H2O and 100 μL of mixture from Step (c). • Split blood agar plates into quadrants: two for 10^4 and two for 10^5. • Take 50 μL from Step (c) or Step (d) and place onto blood agar plates. • Let dry for about 30 min in the hood with the lid closed, and then incubate upside-down at 37° C. for 18˜24 h.

Assay [2] has as its system clinically isolated P. aeruginosa mucoid strains (biofilm). The assay is described as follows: Biofilm antibacterial susceptibility assay, biofilm recovery plate (BICs). The format is cell-based, Pseudomonas aeruginosa. The procedure:
as §1, §2

Assay [3] deals with clinical strains of P. aeruginosa. As to the kind of experiment: microbe, parasite or virus in culture. The format is cell-based, Pseudomonas aeruginosa. To be noted: for MIC: Pseudomonas aeruginosa. As for the experimental part:
MICs (μg/ml, x-axis) for each compound are shown below each graph. […] The OD at 600 nm quantitates the extent of bacterial growth. Diamonds=L6K-F17; squares=tobramycin. Incubation: 37° C. for 19-24 hours.
Nine different clinical P. aeruginosa isolates were tested with a representative CAP, L-6KF17.

Converted amounts (≈) assume the structure as drawn.

For the molecule `NC[C@H]1O[C@H](O[C@H]2[C@H](O)[C@@H](O[C@H]3O[C@H](CO)[C@@H](O)[C@H](N)[C@H]3O)[C@H](N)C[C@@H]2N)[C@H](N)C[C@@H]1O` [Tobramycin, tobramycin], the MIC in assay [1] (strain HSC 003B3-1, planktonic) is 2 to 8 µg/mL (≈ 4.28 to 17.1 µM); in assay [1] (strain HSC 020B2-1, planktonic), 32 to 64 µg/mL (≈ 68.4 to 137 µM); in assay [1] (strain HSC 027B2-3, planktonic), > 128 µg/mL; in assay [1] (strain SMH 022B5-2, planktonic) it was ≤ 0.5 µg/mL; in assay [1] (strain SMH 051B3-1, planktonic), ≤ 0.5 µg/mL; in assay [1] (strain SMH 123E1-1, planktonic) it was ≤ 0.5 µg/mL. In addition, the MIC in assay [3] (strain HSC 002B10-2) is 1 µg/mL (≈ 2.14 µM); in assay [3] (strain HSC 004B1-3) it was 8 µg/mL (≈ 17.1 µM); in assay [3] (strain HSC 007E3-2) it was 8 µg/mL (≈ 17.1 µM); in assay [3] (strain HSC 035B7-1) it was > 32 µg/mL; in assay [3] (strain SMH 064B15-2), 2 µg/mL (≈ 4.28 µM); in assay [3] (strain SMH 072B5-2), > 32 µg/mL. For the same molecule, the MIC in assay [3] (strain SMH 112B41) turned out to be 2 µg/mL (≈ 4.28 µM); in assay [3] (strain SMH 130B12-1), 8 µg/mL (≈ 17.1 µM); in assay [3] (strain SMH 154B10-2) it was 16 µg/mL (≈ 34.2 µM). The BIC in assay [2] (strain HSC 003B3-1, biofilm) was 8 to 64 µg/mL; in assay [2] (strain HSC 020B2-1, biofilm), 128 µg/mL; in assay [2] (strain HSC 027B2-3, biofilm), >128 µg/mL; in assay [2] (strain SMH 022B5-2, biofilm), ≤0.5 µg/mL; in assay [2] (strain SMH 051B3-1, biofilm) it was ≤0.5 µg/mL; in assay [2] (strain SMH 123E1-1, biofilm), 0.5 to 1 µg/mL.

As for `C[C@@H](O)[C@H]1C(=O)N2C(C(=O)O)=C(S[C@@H]3CN[C@H](C(=O)N(C)C)C3)[C@H](C)[C@H]12` [Meropenem, meropenem], the MIC in assay [1] (strain HSC 003B3-1, planktonic) was ≤ 0.5 µg/mL; in assay [1] (strain HSC 020B2-1, planktonic), 1 to 2 µg/mL (≈ 2.61 to 5.22 µM); in assay [1] (strain HSC 027B2-3, planktonic) it was 2 µg/mL (≈ 5.22 µM). Moreover, the BIC was ≤0.5 µg/mL in assay [2] (strain HSC 003B3-1, biofilm); 2 µg/mL in assay [2] (strain HSC 020B2-1, biofilm); 4 µg/mL in assay [2] (strain HSC 027B2-3, biofilm).

For `C[C@H](NC(=O)[C@H](C)NC(=O)[C@H](Cc1ccccc1)NC(=O)[C@H](C)NC(=O)[C@H](C)NC(=O)[C@H](Cc1c[nH]c2ccccc12)NC(=O)[C@H](C)NC(=O)[C@H](C)NC(=O)[C@H](Cc1ccccc1)NC(=O)[C@H](C)NC(=O)[C@H](C)NC(=O)[C@H](CCCCN)NC(=O)[C@H](CCCCN)NC(=O)[C@H](CCCCN)NC(=O)[C@H](CCCCN)NC(=O)[C@H](CCCCN)NC(=O)[C@@H](N)CCCCN)C(N)=O` [L-6KF17], the “MIC compared with tobramycin” value in assay [3] (nine clinical P. aeruginosa isolates) was “equal to or superior to tobramycin in most cases”.

Values taken from US10507227B2, “Cationic antimicrobial peptides” (The Hospital for Sick Children, priority 2014, dated 2019).
